The values below come from ChEMBL document CHEMBL1141344, “Variation in cytostatic constituents of a sponge-derived Gymnascella dankaliensis by manipulating the carbon source” (2007).

Common to all, as to format: functional
The subject of one experiment is ACHN. The experiment is described as follows: Cytotoxicity against human ACHN cells.
The next experiment deals with St-4. Nature of the experiment: Cytotoxicity against human St4 cells.
The nature of experiment [1]: Cytotoxicity against human MKN1 cells. The conditions noted are these: MKN-1.
The test system of a further experiment is MKN-7. Nature of the experiment: Cytotoxicity against human MKN7 cells.
In another experiment the test system is MKN-28. Nature of the experiment: Cytotoxicity against human MKN28 cells.
The next experiment concerns MKN-45. The experiment is described as follows: Cytotoxicity against human MKN45 cells.
Another experiment relates to MKN-74. The experiment is described as follows: Cytotoxicity against human MKN74 cells.
For the next experiment, the system named is DU-145. Nature of the experiment: Cytotoxicity against human DU145 cells.
In the next experiment the test system is OVCAR-5. Nature of the experiment: Cytotoxicity against human OVCAR5 cells.
The next experiment concerns PC-3. Nature of the experiment: Cytotoxicity against human PC3 cells.
Another experiment relates to P388. Nature of the experiment: Growth inhibition of mouse P388 cells. Particulars: read-out: ED50 (the source's name).
Experiment [2] is described as follows: Cytotoxicity against human HBC4 cells.
The nature of experiment [3]: Cytotoxicity against human BSY1 cells. Particulars: BSY-1.
Experiment [4] is described as follows: Cytotoxicity against human HBC5 cells.
The next experiment deals with MCF7. Nature of the experiment: Cytotoxicity against human MCF7 cells.
For another experiment, the system named is MDA-MB-231. Nature of the experiment: Cytotoxicity against human MDA-MB-231 cells.
For the next experiment, the system named is U-251. The experiment is described as follows: Cytotoxicity against human U251 cells.
A further experiment deals with SF-268. The experiment is described as follows: Cytotoxicity against human SF268 cells.
A further experiment relates to SF-295. Nature of the experiment: Cytotoxicity against human SF295 cells.
In a further experiment the test system is SF-539. The experiment is described as follows: Cytotoxicity against human SF539 cells.
Another experiment relates to SNB-75. The experiment is described as follows: Cytotoxicity against human SNB75 cells.
In a further experiment the test system is SNB-78. Nature of the experiment: Cytotoxicity against human SNB78 cells.
Another experiment has as its system HCC 2998. Nature of the experiment: Cytotoxicity against human HCC2998 cells.
For the next experiment, the system named is KM12. The experiment is described as follows: Cytotoxicity against human KM12 cells.
For the next experiment, the system named is HT-29. Nature of the experiment: Cytotoxicity against human HT29 cells.
Another experiment relates to HCT-15. Nature of the experiment: Cytotoxicity against human HCT15 cells.
The test system of another experiment is HCT-116. Nature of the experiment: Cytotoxicity against human HCT116 cells.
For another experiment, the system named is NCI-H23. The experiment is described as follows: Cytotoxicity against human NCI-H23 cells.
Another experiment relates to NCI-H226. Nature of the experiment: Cytotoxicity against human NCI-H226 cells.
A further experiment deals with NCI-H522. The experiment is described as follows: Cytotoxicity against human NCI-H522 cells.
The next experiment deals with NCI-H460. Nature of the experiment: Cytotoxicity against human NCI-H460 cells.
Another experiment deals with A549. The experiment is described as follows: Cytotoxicity against human A549 cells.
In the next experiment the test system is DMS-273. The experiment is described as follows: Cytotoxicity against human DMS273 cells.
The test system of another experiment is DMS-114. The experiment is described as follows: Cytotoxicity against human DMS114 cells.
For another experiment, the system named is LOX IMVI. The experiment is described as follows: Cytotoxicity against human LOX IMVI cells.
The test system of another experiment is OVCAR-3. The experiment is described as follows: Cytotoxicity against human OVCAR-3 cells.
The subject of a further experiment is OVCAR-4. Nature of the experiment: Cytotoxicity against human OVCAR4 cells.
In a further experiment the test system is OVCAR-8. Nature of the experiment: Cytotoxicity against human OVCAR8 cells.
In a further experiment the test system is SK-OV-3. The experiment is described as follows: Cytotoxicity against human SKOV3 cells.
Experiment [5] can be described thus: Cytotoxicity against human RXF631L cells. Particulars: RXF 631.

Converted amounts (≈) assume the structure as drawn.

What is called GI50 is the concentration at which growth is held to half of that of the control. With `CC(C)[C@@H](C)/C=C/[C@@H](C)[C@H]1CCC(=O)[C@]23CC(=O)C4=CC(=O)CC[C@]4(C)[C@H]2CC[C@]13C` [DANKASTERONE A], the GI50 in the experiment with ACHN is 2.4 µM; in the experiment on St-4, 12.9 µM; in [1], 1.82 µM; in the experiment on MKN-7, 4.57 µM; in the experiment on MKN-28, 3.98 µM; in the experiment on MKN-45, 11 µM. In addition, the GI50 in the experiment on MKN-74 was 4.37 µM; in the experiment on DU-145 it was 4.07 µM; with OVCAR-5, 2.29 µM; in the experiment on PC-3 it was 5.62 µM; in experiment [2], 4.37 µM; in experiment [3], 2.19 µM. Further, the concentration for 50% growth inhibition (GI50) in experiment [4] was 3.31 µM; in the experiment on MCF7, 3.72 µM; in the experiment on MDA-MB-231, 5.89 µM; in the experiment with U-251 it was 3.72 µM; with SF-268, 2.82 µM; in the experiment with SF-295, 3.72 µM. The GI50 with SF-539 is 2.09 µM; in the experiment on SNB-75 it was 4.27 µM; in the experiment with SNB-78, 3.02 µM; in the experiment on HCC 2998 it was 1.91 µM; in the experiment with KM12, 3.72 µM; in the experiment on HT-29, 8.13 µM. In addition, the 50% growth inhibitory concentration (GI50) in the experiment on HCT-15 is 2.51 µM; in the experiment on HCT-116, 2.29 µM; in the experiment with NCI-H23 it was 3.8 µM; with NCI-H226, 3.8 µM; with NCI-H522 it was 2.51 µM; with NCI-H460, 11 µM. In addition, the concentration for 50% growth inhibition (GI50) in the experiment on A549 was 14.1 µM; in the experiment with DMS-273, 1.7 µM; in the experiment with DMS-114, 1.7 µM; in the experiment on LOX IMVI it was 2.19 µM; in the experiment on OVCAR-3, 2 µM; in the experiment on OVCAR-4 it was 2.4 µM. Further, the 50% growth inhibitory concentration (GI50) is 3.63 µM in the experiment on OVCAR-8, 15.8 µM with SK-OV-3 and 15.8 µM in experiment [5]. Besides, the EC50 in the experiment with P388 turned out to be 2.2 µg/mL (≈ 5.18 µM).
As for `CC(C)[C@@H](C)/C=C/[C@@H](C)[C@H]1CCC(=O)[C@]23CC(=O)[C@@H]4CC(=O)CC[C@]4(C)[C@H]2CC[C@]13C` [DANKASTERONE B], in the experiment with P388, the EC50 was found to be 2.8 µg/mL (≈ 6.56 µM).
With `CCCCCC[C@H](C)/C=C(C)/C=C/C(=O)N[C@]1(C=O)C[C@H]2C[C@H]([C@H](C)/C=C/[C@H](C)C(C)C)[C@@]3(C)CC[C@H]4C(=C1C(=O)C1=C[C@@H](O)CC[C@@]14C)[C@@]23O` [GYMNASTERONE A], the GI50 in the experiment with ACHN is above 100 µM; in the experiment on St-4, above 100 µM; in experiment [1], above 75.9 µM; in the experiment with MKN-7, 53.7 µM; in the experiment with MKN-28 it was above 38 µM; in the experiment with MKN-45, above 100 µM. Also, the GI50 in the experiment on MKN-74 is 28.2 µM; with DU-145, above 100 µM; in the experiment with OVCAR-5, above 100 µM; in the experiment with PC-3, above 100 µM; in experiment [2], above 100 µM; in experiment [3], above 100 µM. Moreover, the GI50 in [4] was above 91.2 µM; in the experiment with MCF7, 58.9 µM; in the experiment on MDA-MB-231, above 100 µM; in the experiment with U-251 it was above 100 µM; in the experiment on SF-268, 21.9 µM; in the experiment with SF-295 it was 87.1 µM. Also, the GI50 with SF-539 was 50.1 µM; in the experiment on SNB-75, above 100 µM; in the experiment with SNB-78, 12.9 µM; in the experiment with HCC 2998, above 100 µM; in the experiment with KM12, above 100 µM; with HT-29, above 100 µM. Moreover, the 50% growth inhibitory concentration (GI50) was above 100 µM with HCT-15; above 100 µM with HCT-116; above 100 µM in the experiment on NCI-H23; 28.2 µM in the experiment with NCI-H226; 28.2 µM in the experiment with NCI-H522; above 100 µM with NCI-H460. The 50% growth inhibitory concentration (GI50) with A549 was above 100 µM; with DMS-273, above 100 µM; with DMS-114, 72.4 µM; in the experiment with LOX IMVI it was above 100 µM; in the experiment with OVCAR-3, 39.8 µM; in the experiment on OVCAR-4, 67.6 µM. For the same molecule, the 50% growth inhibitory concentration (GI50) with OVCAR-8 was above 100 µM; in the experiment on SK-OV-3, above 100 µM; in experiment [5], 12.9 µM.
Turning to `CC(C)[C@@H](C)/C=C/[C@@H](C)[C@H]1C[C@H]2O[C@]23C2=CC(=O)[C@@H]4CC(=O)CC[C@]4(C)[C@H]2CC[C@]13C` [GYMNASTERONE B], the 50% growth inhibitory concentration (GI50) is above 100 µM with ACHN; above 100 µM in the experiment with St-4; 45.7 µM in experiment [1]; 47.9 µM in the experiment on MKN-7; 60.3 µM in the experiment on MKN-28; 72.4 µM in the experiment on MKN-45. Also, the GI50 with MKN-74 was 83.2 µM; in the experiment on DU-145 it was 28.8 µM; with OVCAR-5 it was 44.7 µM; in the experiment on PC-3 it was 89.1 µM; in experiment [2], above 100 µM; in experiment [3], 15.1 µM. Besides, the GI50 in experiment [4] is 26.9 µM; with MCF7 it was 33.9 µM; with MDA-MB-231 it was 33.1 µM; in the experiment with U-251, above 100 µM; in the experiment on SF-268, above 100 µM; in the experiment on SF-295, 36.3 µM. The 50% growth inhibitory concentration (GI50) in the experiment with SF-539 was above 100 µM; with SNB-75, 56.2 µM; in the experiment on SNB-78, above 100 µM; with HCC 2998, 51.3 µM; with KM12, 67.6 µM; in the experiment with HT-29, 30.2 µM. Further, the concentration for 50% growth inhibition (GI50) was 69.2 µM in the experiment on HCT-15; 95.5 µM in the experiment with HCT-116; 70.8 µM with NCI-H23; 41.7 µM in the experiment on NCI-H226; 26.9 µM in the experiment on NCI-H522; above 100 µM with NCI-H460. In addition, the GI50 with A549 is above 100 µM; with DMS-273, 41.7 µM; with DMS-114 it was 12.9 µM; with LOX IMVI, 87.1 µM; with OVCAR-3, 66.1 µM; with OVCAR-4 it was 49 µM. In addition, the GI50 in the experiment on OVCAR-8 is 67.6 µM; in the experiment with SK-OV-3, above 100 µM; in experiment [5], above 100 µM. Besides, in the experiment with P388, the EC50 was determined as 1.6 µg/mL (≈ 3.77 µM).
Consider `CC(C)[C@@H](C)/C=C/[C@@H](C)[C@H]1CC(=O)C2=C3C=CC4=C[C@@H](O)CC[C@]4(C)[C@H]3CC[C@@]21C` [GYMNASTERONE C], for which the EC50 in the experiment on P388 was found to be 0.9 µg/mL (≈ 2.2 µM).
Still for that read-out and setting: the figure for `CC(C)[C@@H](C)/C=C/[C@@H](C)[C@H]1CC(=O)C2=C3C=CC4=CC(=O)CC[C@]4(C)[C@H]3CC[C@@]21C` [GYMNASTERONE D] is 2.5 µg/mL (≈ 6.15 µM).
